According to patent US20160009772A1, “CELL PENETRATING PEPTIDES WHICH BIND IRF5” (priority 2012, published 2016):
Like-named read-outs stand apart in the source and are kept apart here.

Tests used:
Wild type IRF5 (222-467) = target: T1, Wild type IRF5 (222-467) (Homo sapiens, UniProt Q13568); assay: FRET IRF5 dimerization inhibition assay (TR-FRET), WT construct; assay type: binding
T1 construct: S430D phosphomimetic construct of IRF5 (222-467) as well as WT (222-467)
Description: (§1) The following steps may then be performed: • 1) Prepare 100 nM of biotin-IRF5(S430D) (0.96 mg/ml or 32 uM,) and 250 nM His-IRF5(S430D) (1.51 mg/ml or 51 uM,) in AB1 • 2) Add 50 ul/well of solution in (1) into peptide solutions in 96-well PP plates as described above and incubate at RT for 20 min. • 3) Prepare 10 nM Eu-labeled streptavidin and 80 nM APC-labeled anti-His Ab in AB2 (AB1 w/o DTT) containing 5% DMSO and add 17 ul/well into solutions in (4). • 4) Transfer 30 ul/well into 384-well PP plate (Matrix) and incubate at 40 C for 1 day.
(§2) To test the ability of compounds to inhibit IRF5 dimerization a time-resolved fluorescence resonance energy transfer (TR-FRET) was developed. Binding of recombinant His tagged IRF5 (222-467 constructs) to recombinant biotin tagged IRF5 was measured by FRET between Europium labeled anti-GST antibody and Stretavidin-conjugated Allophycocyanin. […] The IRF5 S430 and WT (222-467) constructs were then used to test the ability of compounds to inhibit dimerization. […] Fifty microliters per well of 100 nM biotin tag IRF5(222-467, S430D) and 250 nM His tag IRF5(222-467, S430D) in Assay Buffer (50 mM Tris-HCl, pH 7.4, 100 mM NaCl, 1 mM DTT and 0.2 mg/ml BSA) were added. The samples were incubated at room temperature for 20 min. Seventeen microliters per well of detection solution containing 10 nM europium (Eu) conjugated streptavidin and 80 nM allophycocyanin (APC) conjugated anti-His antibody (Columbia Biosciences) in Assay Buffer (without DTT) were added. The samples were incubated at room temperature for 60 min followed by overnight incubation at 40 C and 30 ul per well were transferred to 384-well polystyrene plates (Matrix, Thermal Scientific) in duplicates. Assay signals were monitored by reading excitation at 340 nm and emission fluorescence at 615 nm and 665 nm on an Envision reader. TR-FRET signals were calculated by the ratio of acceptor to donor signals after subtracting both blank and donor cross-talk values from acceptor signal (Huang, K S and Vassilev, L T, Methods Enzymol., 399, 717-728 (2005)). The data were processed in Excel XLfit and the IC50 values were calculated using a nonlinear curve-fitting algorithm (four parameter equation). The data represent an average of 3 independent experiments (each run in triplicates) and the reported errors represent standard deviation (s.d.).

IRF5 (222-467, S430D) = target: T2, IRF5 (222-467, S430D) (Homo sapiens, UniProt Q13568, S440D); assay: FRET IRF5 dimerization inhibition assay (TR-FRET), S430D construct; assay type: binding
T2 construct: 250 nM His tag IRF5(222-467, S430D); 100 nM biotin tag IRF5(222-467, S430D)
T2 sequence (Q13568 232-477 S440D): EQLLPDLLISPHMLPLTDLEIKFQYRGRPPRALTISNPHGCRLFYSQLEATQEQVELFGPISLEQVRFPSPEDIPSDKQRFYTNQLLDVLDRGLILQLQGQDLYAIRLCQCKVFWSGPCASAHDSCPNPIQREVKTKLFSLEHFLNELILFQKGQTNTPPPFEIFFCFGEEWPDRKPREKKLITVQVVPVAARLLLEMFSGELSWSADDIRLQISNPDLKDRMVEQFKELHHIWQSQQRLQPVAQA
Description: as §1, §2

[1] = test system: NFκB nuclear translocation in HeLa cells; assay: NFκB translocation assay (TNFα mediated, high content imaging); assay type: cell-based; conditions: 50 μM peptide; TNFα induced NFkB translocation in HeLa cells
Description: The selectivity of the CPP's over NFκB was determined using a high content screening assay wherein TNFα mediated nuclear translocation of NFκB was determined by imaging.
HeLa cells were plated at 5000 cells/well in 96 well Perkin Elmer ViewPlates and incubated overnight at 37 C. Media was aspirated and compounds pre-diluted in 0.05% BSA Hanks/20 mM HEPES were added in duplicate at various concentrations for 30 minutes. Wells were stimulated with 20 μl of 150 ng/ml TNFα for 30 minutes at 37 C. Wells were aspirated and the cells were fixed with 3.7% formaldehyde solution for 15 minutes at room temperature. The fixative was removed and the plates were washed with PBS. The NFkB translocation assay, based upon detection of an antibody to p65 (Thermo-Fisher), was completed and read on the Perkin Elmer Operetta at 40×.

THP-1 cells = assay: Cytotoxicity (cell titer glo) as headed in Table 3; assay type: cell-based, human; conditions: cytotoxicity defined as greater than 40% loss of cells
Description: THP-1 cells obtained from ATCC were seeded at 50 k cells/100 μl/well in a 96 well plate (Corning Cat#3340). Peptides were dissolved in DMSO at 10 mM as stock solution, then 1:10 in water at 1 mM, mix well. R848 (Enzo Cat#ALX-420-038-M005) was dissolved in DMSO (Sigma Cat#D2650) at 10 mM. […] R848 was added to the 96-well cell plate at a final concentration of 10 μM, and cells were incubated at 37° C. for 24 h. The supernatant was tested for IL6 by Alphalisa (Perkin Elmer AL233C) as per manufacturer's instructions. Viability of the cells was measured by cell titer glo (Promega).

[2] = Table 1, WT IRF5 (222-467), average of 3 experiments ± s.d., read-out: WT IC50
[3] = Table 1, S430D phosphomimetic construct of IRF5 (222-467), average of 3 experiments ± s.d., read-out: S430D IC50
[4] = Table 2, WT IRF5 (222-467), read-out: WT IC50

T1 sequence (Q13568 232-477): as the sequence (Q13568 232-477 S440D) above, with D209S counted along it

Compound	IC50 (Wild type IRF5 (222-467); [2]) [µM]	IC50 (IRF5 (222-467, S430D); [3]) [µM]	NFkB selectivity (50 μM) [1]	Cytotoxicity in THP-1 cells at 10 μM (THP-1 cells)	IC50 (Wild type IRF5 (222-467); [4]) [µM]	also measured
CSCC[C@H](NC(C)=O)C(=O)N[C@@H](C)C(=O)N[C@@H](CC(N)=O)C(=O)N[C@@H](CC(C)C)C(=O)NCC(=O)N[C@@H](Cc1ccc(O)cc1)C(=O)N[C@@H](Cc1c[nH]c2ccccc12)C(=O)N[C@@H](CC(C)C)C(=O)N[C@@H](Cc1ccc(O)cc1)C(=O)N[C@@H](C)C(=O)N[C@@H](CC(C)C)C(=O)N[C@@H](Cc1ccccc1)C(=O)N[C@@H](CC(C)C)C(=O)N[C@H](C(=O)N[C@@H](CCSC)C(=O)N[C@H](C(=O)N[C@H](C(=O)N[C@@H](CC(=O)O)C(=O)N[C@H](C(=O)NCC(=O)N[C@@H](CC(C)C)C(=O)N[C@@H](Cc1ccccc1)C(=O)N[C@@H](CCCCN)C(=O)N[C@@H](CCCCN)C(=O)N[C@@H](CCCNC(=N)N)C(=O)N1CCC[C@H]1C(=O)N[C@@H](CCCCN)C(=O)N1CCC[C@H]1C(N)=O)C(C)C)[C@@H](C)O)C(C)C)[C@@H](C)O [SEQ ID NO 7]	41.9 ± 6.4	34.2 ± 5.5	No inhibition	None		
CSCC[C@H](NC(C)=O)C(=O)N[C@@H](C)C(=O)N[C@@H](CC(N)=O)C(=O)N[C@@H](CC(C)C)C(=O)NCC(=O)N[C@@H](Cc1ccc(O)cc1)C(=O)N[C@@H](Cc1c[nH]c2ccccc12)C(=O)N[C@@H](CC(C)C)C(=O)N[C@@H](CC(C)C)C(=O)N[C@@H](CC(C)C)C(=O)N[C@@H](CC(C)C)C(=O)N[C@@H](Cc1ccccc1)C(=O)N[C@H](C(=O)N[C@H](C(=O)N[C@@H](CCSC)C(=O)N[C@@H](Cc1c[nH]c2ccccc12)C(=O)N[C@H](C(=O)N[C@@H](CC(=O)O)C(=O)N[C@H](C(=O)NCC(=O)N[C@@H](CC(C)C)C(=O)N[C@@H](C)C(=O)N[C@@H](CCCCN)C(=O)N[C@@H](CCCCN)C(=O)N[C@@H](CCCNC(=N)N)C(=O)N1CCC[C@H]1C(=O)N[C@@H](CCCCN)C(=O)N1CCC[C@H]1C(N)=O)C(C)C)[C@@H](C)O)[C@@H](C)O)C(C)C [SEQ ID NO 4]	19.5 ± 4	26.4 ± 4.5	No inhibition	None		
Ac-IRLQISNPYLKFIPLKRAIWLIK-NH2 [SEQ ID NO 13]			No inhibition	None		
Ac-PFPPLPIGEEAPKDDMVRFFKDLHQYLNVV-NH2 [SEQ ID NO 10]					0.35	
CSCC[C@H](NC(C)=O)C(=O)N[C@@H](C)C(=O)N[C@@H](CC(N)=O)C(=O)N[C@@H](CC(C)C)C(=O)NCC(=O)N[C@@H](Cc1ccc(O)cc1)C(=O)N[C@@H](Cc1c[nH]c2ccccc12)C(=O)N[C@@H](CC(C)C)C(=O)N[C@@H](CC(C)C)C(=O)N[C@@H](C)C(=O)N[C@@H](CC(C)C)C(=O)N[C@@H](Cc1ccccc1)C(=O)N[C@H](C(=O)N[C@H](C(=O)N[C@@H](Cc1ccc(O)cc1)C(=O)N[C@@H](Cc1c[nH]c2ccccc12)C(=O)N[C@H](C(=O)N[C@@H](CC(=O)O)C(=O)N[C@@H](CC(C)C)C(=O)NCC(=O)N[C@@H](CC(C)C)C(=O)N[C@H](C(=O)N[C@@H](CCCCN)C(=O)N[C@@H](CCCCN)C(=O)N[C@@H](CCCNC(=N)N)C(=O)N1CCC[C@H]1C(=O)N[C@@H](CCCCN)C(=O)N1CCC[C@H]1C(N)=O)C(C)C)[C@@H](C)O)[C@@H](C)O)C(C)C [SEQ ID NO 6]	15.3 ± 4.8	15.4 ± 5.8	No inhibition	None		
Ac-MIILIISFPKHKDWKVILVK-NH2 [SEQ ID NO 14]			No inhibition	None		
Ac-KDLMVQWFKDGGPSSGAPPPS-NH2 [SEQ ID NO 8]					0.79	IC50 (IRF5 (222-467, S430D); Table 2, S430D phosphomimetic construct of IRF5 (222-467), read-out: S430D IC50): 1.68 µM
Ac-YLKFIPLKRAIWLIK-NH2 [SEQ ID NO 23, Ac-YLKFIPLKRAIWLIK-NH2, reference compound]						IC50 (Wild type IRF5 (222-467)): > 75 µM; IC50 (IRF5 (222-467, S430D)): > 75 µM; affinity in FRET dimerization assay (IRF5 (222-467, S430D); S430D and WT IRF5 (222-467) constructs): does not display any affinity
Ac-IRLQISNPDLKDLMVQWFKDGGPSSGAPPPS-NH2 [SEQ ID NO 9]					1.4	
CSCC[C@H](NC(C)=O)C(=O)N[C@@H](C)C(=O)N[C@@H](CC(N)=O)C(=O)N[C@@H](CC(C)C)C(=O)NCC(=O)N[C@@H](Cc1ccc(O)cc1)C(=O)N[C@@H](Cc1c[nH]c2ccccc12)C(=O)N[C@@H](CC(C)C)C(=O)N[C@@H](C)C(=O)N[C@@H](CC(C)C)C(=O)N[C@@H](CC(C)C)C(=O)N[C@@H](Cc1ccccc1)C(=O)N[C@H](C(=O)N[C@H](C(=O)N[C@@H](CCSC)C(=O)N[C@@H](Cc1c[nH]c2ccccc12)C(=O)N[C@H](C(=O)N[C@@H](CC(=O)O)C(=O)N[C@H](C(=O)NCC(=O)N[C@@H](CC(C)C)C(=O)N[C@@H](Cc1ccccc1)C(=O)N[C@@H](CCCCN)C(=O)N[C@@H](CCCCN)C(=O)N[C@@H](CCCNC(=N)N)C(=O)N1CCC[C@H]1C(=O)N[C@@H](CCCCN)C(=O)N1CCC[C@H]1C(N)=O)C(C)C)[C@@H](C)O)[C@@H](C)O)C(C)C [SEQ ID NO 5]	22.4 ± 6.2	26.6 ± 5.4	No inhibition	None		
